Reference: patent US20220218664A1, “DRUG AND METHOD FOR TREATING OR PREVENTING COMPLICATIONS FROM DIABETES, USING SAID DRUG” (TMS Co., Ltd., priority 2019, published 2022)

Tests used:
TNF-α = assay: Inflammatory cytokine TNF-α in sciatic nerve (ELISA); type: in vivo, C57BL/6J male mice; conditions: 4th week
Procedure: (§1) 9-week-old C57BL/6J male mice were purchased and familiarized with an animal facility for 1 week. 200 mg/kg of streptozotocin (streptozotocin; STZ) was administered […] into the peritoneal cavity of 10-week-old mice to prepare streptozotocin-induced diabetic mice (hereinafter also referred to as “STZ administration week 0”). One week after the administration of streptozotocin, blood was collected from the tail vein of the mice, and the blood glucose level (BS) was measured using an automatic blood glucose measuring device (product name: Medisafe (trademark) Mini GR-102, made by Terumo (Co)). Mice having a blood glucose level of 400 mg/dL or more were determined to be diabetic mice.
(§2) The SMTP-44D groups, the edaravone group, and the pregabalin group were administered SMTP-44D (0.3 mg/kg, 3 mg/kg, or 30 mg/kg doses, respectively), edaravone (10 mg/kg dose), or pregabalin (10 mg/kg dose) into the peritoneal cavity once a day for 3 consecutive weeks from the day following the first week to the fourth week after STZ administration.
(§3) The sciatic nerves of the above-mentioned STZ group, SMTP-44D group (30 mg/kg), edaravone group, pregabalin group, and control group mice on the 4th week were homogenized using the RIPA buffer containing a protease inhibitor cocktail. Moreover, centrifugation was conducted at 4° C. for 15 minutes at 10,000 g, and the supernatant was collected and used for measuring TNF-α concentration (pg/mL), IL-1β concentration (pg/mL), IL-6 concentration (pg/mL), and total protein concentration (μg/mL), respectively. An ELISA assay kit was used for the TNF-α, IL-1β, and IL-6 concentrations. The total protein concentration was measured by using a Pierce (trademark) BCA Protein Assay Kit. The inflammatory cytokine level (pg/mg protein) in the total protein was calculated from the TNF-α concentration (pg/mL), IL-1β concentration (pg/mL), and IL-6 concentration (pg/mL), and total protein concentration (μg/mL).

IL-1β = assay: Inflammatory cytokine IL-1β in sciatic nerve (ELISA); type: in vivo, C57BL/6J male mice; conditions: 4th week
Procedure: as §1, §2, §3

[1] = test system: streptozotocin-induced diabetic mice; assay: Hind plantar blood flow (laser perfusion imager); type: in vivo, C57BL/6J male mice
Procedure: as §1, §2
The hind plantar blood flows (perfusion unit: PU) of the above-mentioned STZ group, SMTP-44D groups, edaravone group, pregabalin group, and control group mice were measured under isoflurane anesthesia using a full-field laser perfusion imager.

[2] = test system: streptozotocin-induced diabetic mice; assay: Thickness and G-ratio of myelin in the sciatic nerve; type: in vivo, C57BL/6J male mice; conditions: 4th week
Procedure: as §1, §2
The above-mentioned STZ group, SMTP-44D (30 mg/kg) group, edaravone group, pregabalin group, and control group mice in the 4th week were dissected to remove the sciatic nerves. The sciatic nerves were fixed using neutral buffered formalin and embedded using an Epon resin, and then semi-thin segments were formed and dyed using toluidine blue. The cross sections of the sciatic nerves in the respective specimens were examined using a microscope equipped with a digital camera at 400× magnification. The thickness of myelin ((diameter of axon including myelin diameter of axon)/2) and G-ratio (diameter of axon/diameter of axon including myelin) were measured.

malondialdehyde: MDA = assay: Oxidative stress (MDA, TBARS assay) in sciatic nerve; type: in vivo, C57BL/6J male mice; conditions: 4th week
Procedure: as §1, §2
The sciatic nerves of the above-mentioned STZ group, SMTP-44D group (30 mg/kg), edaravone group, pregabalin group, and control group mice in the 4th week were homogenized using an RIPA buffer containing a protease inhibitor cocktail. Moreover, centrifugation was conducted at 4° C. for 15 minutes at 1600 g, and the supernatant was collected and used for measuring MDA (μM) and total protein concentration (μg/mL), respectively. MDA was measured using a TBARS Assay Kit. The total protein concentration was measured using a Pierce (Trademark) BCA Protein Assay Kit. Oxidative stress levels (nmol/mg protein) were calculated from MDA (μM) and the total protein concentration (μg/mL).

[3] = test system: streptozotocin-induced diabetic mice; assay: Blood glucose level (BS) in streptozotocin-induced diabetic mice; type: in vivo, C57BL/6J male mice
Procedure: as §1, §2
For the above-mentioned STZ group, SMTP-44D groups, edaravone group, pregabalin group, and control group mice, the following measurements were conducted every week from the 0th week, which began on the day when streptozotocin (STZ) was administered, to the 4th week (that is, a total of five times). As algesia tests, the following von Frey test and hot plate test were conducted, and hind plantar blood flow, body weight (BW), and blood glucose level (BS) were measured using the above-mentioned automatic blood glucose measure device. Note, for example, the 0th week represents the 0th day. That is, the measurements were conducted on the 0th, 7th, 14th, 21st, and 28th days.

[4] = test system: diabetic nephropathy model mice; assay: Urine volume (24 h, metabolic cage); type: in vivo, Male db/db mice; conditions: 30 mg/kg i.p. once every two days for 10 weeks; 16 weeks old; 24 h urine
[5] = test system: diabetic nephropathy model mice; assay: Blood glucose level in diabetic nephropathy model mice; type: in vivo, Male db/db mice; conditions: 30 mg/kg i.p. once every two days for 10 weeks; 16 weeks old
[6] = test system: diabetic nephropathy model mice; assay: Serum creatinine; conditions: 30 mg/kg i.p. once every two days for 10 weeks; 16 weeks old
[7] = test system: diabetic nephropathy model mice; assay: Urinary albumin; conditions: 30 mg/kg i.p. once every two days for 10 weeks; 16 weeks old
[8] = Body weight in diabetic nephropathy model mice; type: in vivo, Male db/db mice; conditions: 30 mg/kg i.p. once every two days for 10 weeks; 16 weeks old
[9] = 10 mg/kg i.p. once a day, listed as pregabalin
[10] = 10 mg/kg i.p. once a day, 0th week (before dosing)
[11] = 10 mg/kg i.p. once a day, 0th week (before dosing), listed as pregabalin
[12] = 10 mg/kg i.p. once a day, 1st week (before dosing)
[13] = 10 mg/kg i.p. once a day, 1st week (before dosing), listed as pregabalin
[14] = 10 mg/kg i.p. once a day, 2nd week
[15] = 10 mg/kg i.p. once a day, 2nd week, listed as pregabalin
[16] = 10 mg/kg i.p. once a day, 3rd week, listed as pregabalin
[17] = 10 mg/kg i.p. once a day, 4th week
[18] = 10 mg/kg i.p. once a day, 4th week, listed as pregabalin
[19] = 10 mg/kg i.p. once a day, listed as Preaabalin
[20] = 30 mg/kg i.p. once a day, 0th week (before dosing)
[21] = 30 mg/kg i.p. once a day, 1st week (before dosing)
[22] = 30 mg/kg i.p. once a day, 2nd week
[23] = 30 mg/kg i.p. once a day, 3rd week
[24] = 30 mg/kg i.p. once a day, 4th week

CC(C)C[C@H](CN)CC(=O)O [Pregabalin, pregabalin]
TNF-α (TNF-α; 10 mg/kg i.p. once a day): 14.53 ± 1.41 pg/mg protein
TNF-α (TNF-α; [9]): 14.53±1.41 pg/mg protein
IL-1β (IL-1β; 10 mg/kg i.p. once a day): 58.04 ± 4.47 pg/mg protein
IL-1β (IL-1β; [9]): 58.04±4.47 pg/mg protein
Hind plantar blood flow [1, 10]: 214.2 ± 7.6 PU
Hind plantar blood flow [1, 11]: 214.2±7.6 PU
Hind plantar blood flow [1, 12]: 159.8 ± 6.3 PU
Hind plantar blood flow [1, 13]: 159.8±6.3 PU
Hind plantar blood flow [1, 14]: 144.7 ± 8.3 PU
Hind plantar blood flow [1, 15]: 144.7±8.3 PU
Hind plantar blood flow ([1]; 10 mg/kg i.p. once a day, 3rd week): 152.7 ± 9.5 PU
Hind plantar blood flow [1, 16]: 152.7±9.5 PU
Hind plantar blood flow [1, 17]: 151.2 ± 8.0 PU
Hind plantar blood flow [1, 18]: 151.2±8.0 PU
G-ratio [2, 19]: 0.665 ± 0.006
Thickness of myelin [2, 19]: 1.29 ± 0.03 μm
G-ratio [2, 9]: 0.665±0.006
Thickness of myelin [2, 9]: 1.29±0.03 μm
MDA (oxidative stress) (malondialdehyde: MDA; 10 mg/kg i.p. once a day): 4.02 ± 0.59 nmol/mg protein
MDA (oxidative stress) (malondialdehyde: MDA; [9]): 4.02±0.59 nmol/mg protein
BS (blood glucose level) [3, 10]: 192.2 ± 5.3 mg/dL
BS (blood glucose level) [3, 11]: 192.2 ± 5.3 mg/dL
BS (blood glucose level) [3, 12]: 562.7 ± 25.6 mg/dL
BS (blood glucose level) [3, 13]: 562.7 ± 25.6 mg/dL
BS (blood glucose level) [3, 14]: 639.1 ± 44.7 mg/dL
BS (blood glucose level) [3, 15]: 639.1 ± 44.7 mg/dL
BS (blood glucose level) [3, 16]: 657.2 ± 38.7 mg/dL
BS (blood glucose level) [3, 17]: 582.3 ± 38.2 mg/dL
BS (blood glucose level) [3, 18]: 582.3 ± 38.2 mg/dL

CC(C)=CCCC(C)=CCCC1(C)Oc2c(c(O)cc3c2CN(C(C(=O)O)c2ccc(O)cc2)C3=O)CC1O (stereo not shown) [SMTP-44D]
TNF-α (TNF-α; 30 mg/kg i.p. once a day): 15.22±2.51 pg/mg protein
IL-1β (IL-1β; 30 mg/kg i.p. once a day): 24.90±4.05 pg/mg protein
Hind plantar blood flow ([1]; 0.3 mg/kg i.p. once a day, 0th week (before dosing)): 199.8±9.8 PU
Hind plantar blood flow ([1]; 0.3 mg/kg i.p. once a day, 1st week (before dosing)): 150.7±9.4 PU
Hind plantar blood flow ([1]; 0.3 mg/kg i.p. once a day, 2nd week): 152.9±8.7 PU
Hind plantar blood flow ([1]; 0.3 mg/kg i.p. once a day, 3rd week): 141.0±8.7 PU
Hind plantar blood flow ([1]; 0.3 mg/kg i.p. once a day, 4th week): 132.3±6.6 PU
Hind plantar blood flow ([1]; 3 mg/kg i.p. once a day, 0th week (before dosing)): 210.7±14.1 PU
Hind plantar blood flow ([1]; 3 mg/kg i.p. once a day, 1st week (before dosing)): 154.8±12.8 PU
Hind plantar blood flow ([1]; 3 mg/kg i.p. once a day, 2nd week): 169.3±7.9 PU
Hind plantar blood flow ([1]; 3 mg/kg i.p. once a day, 3rd week): 161.3±11.8 PU
Hind plantar blood flow ([1]; 3 mg/kg i.p. once a day, 4th week): 162.1±9.8 PU
Hind plantar blood flow [1, 20]: 201.4±6.8 PU
Hind plantar blood flow [1, 21]: 142.7±7.1 PU
Hind plantar blood flow [1, 22]: 185.0±8.4 PU
Hind plantar blood flow [1, 23]: 234.7±11.2 PU
Hind plantar blood flow [1, 24]: 214.9±12.2 PU
Urine volume [4]: 1268.3 ± 137.4 µL
Blood glucose levels compared to the DN group [5]: No significant changes
Serum creatinine [6]: 0.4 ± 0.1 mg/dL
Thickness of myelin ([2]; 30 mg/kg i.p. once a day): 1.58±0.02 μm
MDA (oxidative stress) (malondialdehyde: MDA; 30 mg/kg i.p. once a day): 1.98±0.51 nmol/mg protein
Urinary albumin [7]: 0.3 ± 0.1 mg/h/kg
BS (blood glucose level) [3, 20]: 203.5 ± 5.5 mg/dL
BS (blood glucose level) [3, 21]: 535.5 ± 28.7 mg/dL
BS (blood glucose level) [3, 22]: 597.3 ± 44.8 mg/dL
BS (blood glucose level) [3, 23]: 638.7 ± 34.2 mg/dL
BS (blood glucose level) [3, 24]: 580.3 ± 42.9 mg/dL
Body weight compared to the DN group [8]: No significant changes
